What was measured:
[1] = system: Puccinia recondita f. sp. tritici; test: Fungicidal activity against Puccinia recondita f. sp. tritici / wheat / leaf disc preventative (brown rust); type: in vivo; conditions: foliar, 200 ppm in the applied formulation, wheat leaf segments cv. Kanzler, preventative (inoculated 1 day after application), assessed 7 to 9 days after application, read-out: disease control compared to untreated control leaf disks
In short: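 Preventative leaf-segment test: compound sprayed at 200 ppm onto wheat (cv. Kanzler) segments, brown rust spores applied 1 day after. Kept at 19C and 75% rh under 12 h light/dark cycles; disease control versus untreated check read 7 to 9 days post-application.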

[2] = system: Puccinia recondita f. sp. tritici; test: Fungicidal activity against Puccinia recondita f. sp. tritici / wheat / leaf disc curative (brown rust); type: in vivo; conditions: foliar, 200 ppm in the applied formulation, wheat leaf segments cv. Kanzler, curative (applied 1 day after inoculation), assessed 6 to 8 days after application, read-out: disease control compared to untreated control leaf disks
In short: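 Curative test: compound, diluted from DMSO stock into water, applied one day after spore inoculation of wheat (cv. Kanzler) leaf segments kept on agar in darkness at 19° C. and 75% RH. Climate-cabinet incubation (19° C., 75% RH, 12 h photoperiod); disease control relative to untreated read 6–8 days post-application.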

Phakopsora pachyrhizi = test: Fungicidal activity against Phakopsora pachyrhizi / soybean / leaf disc preventative (Asian soybean rust); type: in vivo; conditions: foliar, 200 ppm in the applied formulation, soybean leaf disks, preventative (inoculated one day after application), assessed 12 to 14 days after application, read-out: disease control compared to untreated control leaf disks
In short: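 Preventative test: compound applied to soybean leaf discs a day before spore inoculation of the lower surface. Discs kept at 20° C and 75% rh, first 24-36 h in darkness, then under 12 h light/day; disease control relative to untreated discs rated 12 to 14 days post-application.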

[3] = system: Glomerella laqenarium (Colletotrichum lagenarium); test: Fungicidal activity against Glomerella lagenarium (Colletotrichum lagenarium) liquid culture / cucumber / preventative (anthracnose); type: cell-based; conditions: Colletotrichum orbiculare; 20 ppm in the applied formulation; liquid culture in PDB, 24° C., 3 to 4 days after application; read-out: disease control compared to untreated control (inhibition of growth measured photometrically)
In short: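 Test compound, applied from DMSO solution, is combined with PDB containing conidia taken from cryogenic storage. After 3–4 days at 24 °C, growth is measured photometrically and antifungal activity expressed as percent relative to untreated control.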

O=C(NCCCCCl)c1ccc(-c2noc(C(F)(F)F)n2)cc1F [Compound 3b.20, N-(4-chlorobutyl)-2-fluoro-4-[5-(trifluoromethyl)-1,2,4-oxadiazol-3-yl]benzamide]
≥ 80%: pest or weed control at 200 ppm [1] | pest or weed control at 200 ppm [2] | pest or weed control at 200 ppm (Phakopsora pachyrhizi) | inhibition at 20 ppm [3]

O=C(NCCO)c1ccc(-c2noc(C(F)(F)F)n2)cc1F [Compound 3b.21, 2-fluoro-N-(2-hydroxyethyl)-4-[5-(trifluoromethyl)-1,2,4-oxadiazol-3-yl]benzamide]
≥ 80%: pest or weed control at 200 ppm [1] | pest or weed control at 200 ppm [2] | pest or weed control at 200 ppm (Phakopsora pachyrhizi) | inhibition at 20 ppm [3]

O=C(NCCCCCO)c1ccc(-c2noc(C(F)(F)F)n2)cc1F [Compound 3b.22, 2-fluoro-N-(5-hydroxypentyl)-4-[5-(trifluoromethyl)-1,2,4-oxadiazol-3-yl]benzamide]
≥ 80%: pest or weed control at 200 ppm [1] | pest or weed control at 200 ppm [2] | pest or weed control at 200 ppm (Phakopsora pachyrhizi) | inhibition at 20 ppm [3]

CCOCCCNC(=O)c1ccc(-c2noc(C(F)(F)F)n2)cc1F [Compound 3b.24, N-(3-ethoxypropyl)-2-fluoro-4-[5-(trifluoromethyl)-1,2,4-oxadiazol-3-yl]benzamide]
≥ 80%: pest or weed control at 200 ppm [1] | pest or weed control at 200 ppm [2] | pest or weed control at 200 ppm (Phakopsora pachyrhizi) | inhibition at 20 ppm [3]

CC(C)NC(=O)c1ccc(-c2noc(C(F)(F)F)n2)cc1F [Compound 3b.27, 2-fluoro-N-isopropyl-4-[5-(trifluoromethyl)-1,2,4-oxadiazol-3-yl]benzamide]
≥ 80%: pest or weed control at 200 ppm [1] | pest or weed control at 200 ppm [2] | pest or weed control at 200 ppm (Phakopsora pachyrhizi) | inhibition at 20 ppm [3]

CC(C)(O)CNC(=O)c1ccc(-c2noc(C(F)(F)F)n2)cc1F [Compound 3b.29, 2-fluoro-N-(2-hydroxy-2-methyl-propyl)-4-[5-(trifluoromethyl)-1,2,4-oxadiazol-3-yl]benzamide]
≥ 80%: pest or weed control at 200 ppm [1] | pest or weed control at 200 ppm [2] | pest or weed control at 200 ppm (Phakopsora pachyrhizi) | inhibition at 20 ppm [3]

C=CCN(CC)C(=O)c1ccc(-c2noc(C(F)(F)F)n2)cc1F [Compound 3b.30, N-allyl-N-ethyl-2-fluoro-4-[5-(trifluoromethyl)-1,2,4-oxadiazol-3-yl]benzamide]
≥ 80%: pest or weed control at 200 ppm [1] | pest or weed control at 200 ppm [2] | pest or weed control at 200 ppm (Phakopsora pachyrhizi) | inhibition at 20 ppm [3]

CCN(CC)C(=O)c1ccc(-c2noc(C(F)(F)F)n2)cc1F [Compound 3b.32, N,N-diethyl-2-fluoro-4-[5-(trifluoromethyl)-1,2,4-oxadiazol-3-yl]benzamide]
≥ 80%: pest or weed control at 200 ppm [1] | pest or weed control at 200 ppm [2] | pest or weed control at 200 ppm (Phakopsora pachyrhizi) | inhibition at 20 ppm [3]

C=C(C)CN(CC)C(=O)c1ccc(-c2noc(C(F)(F)F)n2)cc1F [Compound 3b.33, N-ethyl-2-fluoro-N-(2-methylallyl)-4-[5-(trifluoromethyl)-1,2,4-oxadiazol-3-yl]benzamide]
≥ 80%: pest or weed control at 200 ppm [1] | pest or weed control at 200 ppm [2] | pest or weed control at 200 ppm (Phakopsora pachyrhizi) | inhibition at 20 ppm [3]

CCCN(C)C(=O)c1ccc(-c2noc(C(F)(F)F)n2)cc1F [Compound 3b.34, 2-fluoro-N-methyl-N-propyl-4-[5-(trifluoromethyl)-1,2,4-oxadiazol-3-yl]benzamide]
≥ 80%: pest or weed control at 200 ppm [1] | pest or weed control at 200 ppm [2] | pest or weed control at 200 ppm (Phakopsora pachyrhizi) | inhibition at 20 ppm [3]

CCN(C(=O)c1ccc(-c2noc(C(F)(F)F)n2)cc1F)C(C)C [Compound 3b.35, N-ethyl-2-fluoro-N-isopropyl-4-[5-(trifluoromethyl)-1,2,4-oxadiazol-3-yl]benzamide]
≥ 80%: pest or weed control at 200 ppm [1] | pest or weed control at 200 ppm [2] | pest or weed control at 200 ppm (Phakopsora pachyrhizi) | inhibition at 20 ppm [3]

Source: US10959432B2, “Microbiocidal oxadiazole derivatives” (Syngenta Participations AG, priority 2016, dated 2021)
